Measured values reported in ChEMBL document CHEMBL4303084, “Identification of antiviral drug candidates against SARS-CoV-2 from FDA-approved drugs” (2020).
pIC50: −log10 of the molar value. Starred links: 1 amine or outer side, 2 acyl side, 3 side chain; linkers in the order of their positions; H or OH if unused. Positions of bridges follow the written chain, without caps; N, C: chain ends. Non-standard residues stand in square brackets, D forms with d. Residues, ends and D or L forms follow the SMILES beside them. *: point of attachment. pTerphenylCO(4''-OnC5H11) = CCCCCOc1ccc(-c2ccc(-c3ccc(C(=O)*)cc3)cc2)cc1; Orn(4R-OH,5R-OH) = O=C([C@H](C[C@@H](O)[C@@H](O)N[*:3])N[*:1])[*:2]; hTyr(3S-OH,4S-OH) = N[C@H](C(=O)O)[C@H](O)[C@@H](O)c1ccc(O)cc1; Pro(3S-OH,4S-Me) = C[C@H]1CN[C@H](C(=O)O)[C@H]1O; Hyp = O=C(O)[C@@H]1C[C@@H](O)CN1

Key:
[1] = Selectivity index for antiviral vs cytotoxic activity in Vero cells (CC50/IC50); conditions: monkey
[2] = tested on: SARS-CoV-2; assay: microbe, parasite or virus in culture; format: functional, organism-based, Chlorocebus sabaeus; conditions: Severe acute respiratory syndrome coronavirus 2, Vero, 24 h
[3] = Cell viability measured by CellTiter-Glo assay in Vero cells at MOI 0.05 after 72hr; conditions: chlorocebus sabaeus

| SMILES | selectivity ratio ([1]; Vero cells) | pIC50 [2] | CC50 at 72 h ([3]; Vero cells) [µM] | CC50 at 72 h ([3]; vero) [µM] | selectivity ratio ([1]; vero) |
| --- | --- | --- | --- | --- | --- |
| CC1(C)C=Cc2c(c3c(c4c(=O)c(-c5ccc(O)cc5)coc24)OC(C)(C)CC3)O1 | 3.07 | 5.49 | 9.89 |  |  |
| CCC(CC)COC(=O)[C@H](C)N[P@](=O)(OC[C@H]1O[C@@](C#N)(c2ccc3c(N)ncnn23)[C@H](O)[C@@H]1O)Oc1ccccc1 |  |  | > 25 |  |  |
| CCN1CCN(Cc2ccc(Nc3ncc(F)c(-c4cc(F)c5nc(C)n(C(C)C)c5c4)n3)nc2)CC1 [ABEMACICLIB] |  | 5.18 | > 50 |  |  |
| CCN(CC)Cc1cc(Nc2ccnc3cc(Cl)ccc23)ccc1O [AMODIAQUINE] |  | 5.29 | > 50 |  |  |
| CCCCCOc1ccc(-c2ccc(-c3ccc(C(=O)N[C@H]4C[C@@H](O)[C@@H](O)NC(=O)[C@@H]5[C@@H](O)[C@@H](C)CN5C(=O)[C@H]([C@@H](C)O)NC(=O)[C@H]([C@H](O)[C@@H](O)c5ccc(O)cc5)NC(=O)[C@@H]5C[C@@H](O)CN5C(=O)[C@H]([C@@H](C)O)NC4=O)cc3)cc2)cc1 [ANIDULAFUNGIN] ({pTerphenylCO(4''-OnC5H11)}-[Orn(4R-OH,5R-OH)]T[Hyp][hTyr(3S-OH,4S-OH)]T[Pro(3S-OH,4S-Me)]; lactam 1-C) | 10.8 | 5.33 | > 50 |  |  |
| Cc1c(-c2ccc(O)cc2)n(Cc2ccc(OCCN3CCCCCC3)cc2)c2ccc(O)cc12 [BAZEDOXIFENE] |  |  | 15 |  |  |
| COc1cc2c3cc1Oc1c(OC)c(OC)cc4c1[C@@H](Cc1ccc(O)c(c1)Oc1ccc(cc1)C[C@@H]3N(C)CC2)N(C)CC4 [BERBAMINE] | 6.35 | 5.10 | > 50 |  |  |
| CN(C)C(=O)COC(=O)Cc1ccc(OC(=O)c2ccc(NC(=N)N)cc2)cc1 [CAMOSTAT] |  | < 4.30 | > 50 |  |  |
| COc1ccc2cc1Oc1ccc(cc1)C[C@H]1c3c(cc4c(c3Oc3cc5c(cc3OC)CCN(C)[C@@H]5C2)OCO4)CCN1C [CEPHARANTHINE] | 11.2 | 5.35 | > 50 |  |  |
| Cc1cc(Nc2ncc(Cl)c(Nc3ccccc3S(=O)(=O)C(C)C)n2)c(OC(C)C)cc1C1CCNCC1 [CERITINIB] | 2.39 | 5.54 | 6.84 |  |  |
| CCN(CC)CCCC(C)Nc1ccnc2cc(Cl)ccc12 (centres undefined) [CHLOROQUINE] |  |  | > 150 |  |  |
| CC(C)C(=O)OCC(=O)[C@@]12O[C@H](C3CCCCC3)O[C@@H]1C[C@H]1[C@@H]3CCC4=CC(=O)C=C[C@]4(C)[C@H]3[C@@H](O)C[C@@]12C [CICLESONIDE] | 11.6 | 5.36 | > 50 |  |  |
| CCN(CC)CCOc1ccc(C(=C(Cl)c2ccccc2)c2ccccc2)cc1 [CLOMIPHENE] | 2.8 | 5.27 | 15 |  |  |
| C[C@H]1O[C@@H](O[C@H]2[C@@H](O)C[C@H](O[C@H]3[C@@H](O)C[C@H](O[C@H]4CC[C@@]5(C)[C@H](CC[C@@H]6[C@@H]5CC[C@]5(C)[C@@H](C7=CC(=O)OC7)CC[C@]65O)C4)O[C@@H]3C)O[C@@H]2C)C[C@H](O)[C@@H]1O [DIGITOXIN] | 214 | > 6.64 | > 50 |  |  |
| C[C@H]1O[C@@H](O[C@H]2[C@@H](O)C[C@H](O[C@H]3[C@@H](O)C[C@H](O[C@H]4CC[C@@]5(C)[C@H](CC[C@@H]6[C@@H]5C[C@@H](O)[C@]5(C)[C@@H](C7=CC(=O)OC7)CC[C@]65O)C4)O[C@@H]3C)O[C@@H]2C)C[C@H](O)[C@@H]1O [DIGOXIN] | 257 | 6.72 | > 50 |  |  |
| CC(C)=CCCC1(C)C=Cc2c(O)c3c(c(CC=C(C)C)c2O1)OC12C(=CC4CC1C(C)(C)OC2(C/C=C(/C)C(=O)O)C4O)C3=O (centres undefined) [DIHYDROGAMBOGIC ACID] | 0.74 | 4.87 | 9.85 |  |  |
| CC/C(=C(/c1ccc(OCCN(C)C)cc1)c1cccc(O)c1)c1ccccc1 [DROLOXIFENE] | 2.4 | 5.18 | 15.8 |  |  |
| CCCCc1oc2ccc(NS(C)(=O)=O)cc2c1C(=O)c1ccc(OCCCN(CCCC)CCCC)cc1 [DRONEDARONE] | 2.23 | 5.41 | 8.75 |  |  |
| CC(C)(C)c1ccc(C(=O)CCCN2CCC(OC(c3ccccc3)c3ccccc3)CC2)cc1 [EBASTINE] |  |  |  | 15.4 |  |
| CC1=NN(c2ccc(C)c(C)c2)C(=O)/C1=N\Nc1cccc(-c2cccc(C(=O)O)c2)c1O [ELTROMBOPAG] |  | 5.08 | > 50 |  |  |
| COc1ccc2cc1Oc1ccc(cc1)C[C@H]1c3cc(c(OC)cc3CCN1C)Oc1c(OC)c(OC)cc3c1[C@H](C2)N(C)CC3 [FANCHININ] | 4.97 | 5.52 | 14.9 |  |  |
| CCc1nc(C(N)=O)c(Nc2ccc(N3CCC(N4CCN(C)CC4)CC3)c(OC)c2)nc1NC1CCOCC1 [GILTERITINIB] | 5.5 | 5.17 | 37.2 |  |  |
| Oc1c(Cl)cc(Cl)c(Cl)c1Cc1c(O)c(Cl)cc(Cl)c1Cl [HEXACHLOROPHENE] | 21.6 | 6.05 | 19.3 |  |  |

| SMILES | selectivity ratio ([1]; Vero cells) | pIC50 [2] | CC50 at 72 h ([3]; Vero cells) [µM] | CC50 at 72 h ([3]; vero) [µM] | selectivity ratio ([1]; vero) |
| --- | --- | --- | --- | --- | --- |
| CCCCCC(=O)O[C@]1(C(C)=O)CC[C@H]2[C@@H]3CCC4=CC(=O)CC[C@]4(C)[C@H]3CC[C@@]21C [HYDROXYPROGESTERONE CAPROATE] | 7.93 | 5.20 | > 50 |  |  |
| CC(C)(C)c1cc(C(C)(C)C)c(NC(=O)c2c[nH]c3ccccc3c2=O)cc1O [IVACAFTOR] | 3.76 | 5.18 | 27.3 |  |  |
| CC(=O)O[C@H]1C[C@H](O[C@H]2[C@@H](O)C[C@H](O[C@H]3[C@@H](O)C[C@H](O[C@H]4CC[C@@]5(C)[C@H](CC[C@@H]6[C@@H]5C[C@@H](O)[C@]5(C)[C@@H](C7=CC(=O)OC7)CC[C@]65O)C4)O[C@@H]3C)O[C@@H]2C)O[C@H](C)[C@H]1O[C@@H]1O[C@H](CO)[C@@H](O)[C@H](O)[C@H]1O [LANATOSIDE C] | 1 | < 4.30 | > 50 |  |  |
| CN(C)C(=O)C(CCN1CCC(O)(c2ccc(Cl)cc2)CC1)(c1ccccc1)c1ccccc1 [LOPERAMIDE] |  |  | 29.3 |  |  |
| Cc1cccc(C)c1OCC(=O)N[C@@H](Cc1ccccc1)[C@@H](O)C[C@H](Cc1ccccc1)NC(=O)[C@H](C(C)C)N1CCCNC1=O [LOPINAVIR] |  | 5.04 | > 50 |  |  |
| CCCCCCO[C@@H](C)c1cccc(-c2csc(NC(=O)c3cc(Cl)c(/C=C(\C)C(=O)O)c(Cl)c3)n2)c1OC [LUSUTROMBOPAG] | 3.87 | 5.42 | 14.6 |  |  |
| OC(c1cc(C(F)(F)F)nc2c(C(F)(F)F)cccc12)C1CCCCN1 (centres undefined) [MEFLOQUINE] | 3.22 | 5.36 | 14 |  |  |
| c1ccc2c(c1)Sc1ccccc1N2CC1CN2CCC1CC2 (centres undefined) [MEQUITAZINE] | 3.76 | 5.14 | 27.3 |  |  |
| O=C(Nc1ccc([N+](=O)[O-])cc1Cl)c1cc(Cl)ccc1O [NICLOSAMIDE] |  |  | > 50 |  |  |
| CC(C)=CCc1c2c(c3occ(-c4ccc(O)cc4)c(=O)c3c1O)C=CC(C)(C)O2 [OSAJIN] | 2.95 | 5.41 | 11.4 |  |  |
| C=CC(=O)Nc1cc(Nc2nccc(-c3cn(C)c4ccccc34)n2)c(OC)cc1N(C)CCN(C)C [OSIMERTINIB] | 4.05 | 5.49 | 13.2 |  |  |
| C[C@@H]1O[C@@H](O[C@H]2C[C@@H](O)[C@]3(CO)[C@H]4[C@H](O)C[C@]5(C)[C@@H](C6=CC(=O)OC6)CC[C@]5(O)[C@@H]4CC[C@]3(O)C2)[C@H](O)[C@H](O)[C@H]1O [OUABAIN OCTAHYDRATE] | 516 | > 7.01 | > 50 |  |  |
| O=C(Nc1cc(Cl)cc(Cl)c1O)c1c(O)c(Cl)cc(Cl)c1Cl [OXYCLOZANIDE] |  | 5.43 | > 50 |  |  |
| OC1(c2ccc(Cl)c(C(F)(F)F)c2)CCN(CCCC(c2ccc(F)cc2)c2ccc(F)cc2)CC1 [PENFLURIDOL] | 1.75 | 5.30 | 8.77 |  |  |
| C1CCC(C(CC2CCCCN2)C2CCCCC2)CC1 (centres undefined) [PERHEXILINE] | 1.36 | 5.20 | 8.67 |  |  |
| Nc1ccc(/N=N/c2ccccc2)c(N)n1 [PHENAZOPYRIDINE] |  | 4.55 | > 50 |  |  |
| C[C@@H]1O[C@@H](O[C@@H]2C=C3CC[C@@H]4[C@H](CC[C@]5(C)[C@@H](c6ccc(=O)oc6)CC[C@]45O)[C@@]3(C)CC2)[C@H](O)[C@H](O)[C@H]1O [PROSCILLARIDIN] | 24.5 | 5.69 | > 50 |  |  |
| CCN(CC)CCCC(C)Nc1c2ccc(Cl)cc2nc2ccc(OC)cc12 (centres undefined) [QUINACRINE] |  | < 4.30 | 14.7 |  | 0.29 |
| CC[C@@H](C(=O)[C@@H](C)[C@@H](O)[C@H](C)[C@@H]1O[C@@H]([C@@H](CC)C(=O)O)CC[C@@H]1C)[C@H]1O[C@]2(C=C[C@@H](O)[C@]3(CC[C@@](C)([C@H]4CC[C@](O)(CC)[C@H](C)O4)O3)O2)[C@H](C)C[C@@H]1C [SALINOMYCIN] | 211 | 6.62 | > 50 |  |  |
| CSc1ccc2c(c1)N(CCC1CCCCN1C)c1ccccc1S2 (centres undefined) [THIORIDAZINE] | 2.39 | 5.17 | 16 |  |  |
| CCN(CC)CCOc1ccc2c(c1)C(=O)c1cc(OCCN(CC)CC)ccc1-2 [TILORONE] | 4.81 | 5.39 | 19.7 |  |  |
| CN(C)CCOc1ccc(/C(=C(/CCCl)c2ccccc2)c2ccccc2)cc1 [TOREMIFENE] | 2.82 | 5.45 | 10.1 |  |  |
| CCN(CC)CCOc1ccc(C(O)(Cc2ccc(Cl)cc2)c2ccc(C)cc2)cc1 (centres undefined) [TRIPARANOL] | 2.09 | 5.15 | 14.7 |  |  |
